Reference: patent publication US20240262806A1, “INHIBITORS OF NLRP3” (PTC THERAPEUTICS, INC., priority 2021, published 2024)
pIC50: −log10 of the molar value. Like-named read-outs stand apart in the source and are kept apart here.

System: NLRP3 inflammasome
Assay: IL-1β Secretion Assay (NLRP3-dependent IL-1β secretion in PMA-differentiated THP-1 cells, nigericin activation, HTRF)
Type: cell-based
Settings: 100 ng/mL PMA 24 h, compound 20 h, 2.5 μM Nigericin 3 h, read-out: IC50 IL-1β Inhibition
Protocol: Cells were washed 1× with 100 ul PBS and replaced with fresh RPMI+5% FBS. Compounds were serial diluted in DMSO with 3 fold dilution for a total of 7 concentrations.
Compounds, once produced and prepared according to the present invention, can be assessed in variety of assays to characterize their activities. […] IC50 values of IL1β inhibition were calculated from the plot of percentage of inhibition versus the inhibitor concentration by a logistics fit. TABLE I depict examples of compounds according to generic Formulae I. Data which is <1 nM is listed as *****; data 1-10 nM is listed as ****; data 10-100 nM is listed as ***, data 100-300 nM is listed as **, data >300 nM is listed as *.

[1] = Homo sapiens, THP-1, THP-1 cells

Row | SMILES | pIC50 [1] | pIC50 (THP-1 cells)
1 | CN1CCC[C@@H](Nc2nnc(-c3ccc(OC(F)(F)F)cc3OC(F)F)c3ccncc23)C1 [Compound I-191] | 8.00 to 9.00 | –
2 | Oc1cc(C(F)(F)F)ccc1-c1nnc(N[C@@H]2CCCNC2)c2cnccc12 [Compound I-35] | > 9.00 | –
3 | CN1CCC[C@@H](Nc2nnc(-c3ccc(C(F)(F)F)cc3N)c3ccccc23)C1 [Compound I-123] | 8.00 to 9.00 | –
4 | Cc1cc(O)c(-c2nnc(N[C@@H]3CCCN(CCO)C3)c3cnccc23)c(F)c1 [Compound I-273] | > 9.00 | –
5 | C[C@@H](O)CNc1nnc(-c2ccc(C(F)(F)F)cc2C(F)(F)F)c2cccn12 [Compound I-492] | 8.00 to 9.00 | –
6 | CC(C)(O)CN1CCC[C@@H](Nc2nnc(-c3ccc(Cl)cc3O)c3cccn23)C1 [Compound I-403] | 7.00 to 8.00 | –
7 | CC(C)(O)CNc1nnc(-c2c(O)cc(C3CC3)cc2F)c2cccn12 [Compound I-540] | 7.00 to 8.00 | –
8 | COc1cc(C(F)(F)F)ccc1-c1nnc(N2CCC(N(C)C)CC2)c2cnccc12 [Compound I-201] | 7.00 to 8.00 | –
9 | CCN1CCC[C@@H](Nc2nnc(-c3ccc(C)cc3O)c3ccnn23)C1 [Compound I-633] | 8.00 to 9.00 | –
10 | C[C@H](O)CNc1nnc(-c2ccc(C(F)(F)F)cc2OC(F)F)c2cccn12 [Compound I-389] | 8.00 to 9.00 | –
11 | CCN1CCC[C@@H](Nc2nnc(-c3ccc(Cl)cc3O)c3cncn23)C1 [Compound I-442] | > 9.00 | –
12 | CCN1CCC[C@@H](Nc2nnc(-c3ccc(OC(F)(F)F)cc3OC(F)F)c3cccn23)C1 [Compound I-565] | 8.00 to 9.00 | –
13 | CN1CCC[C@@H](Nc2nnc(-c3ccc(C4CC4)cc3OC(F)F)c3ccncc23)C1 [Compound I-247] | 8.00 to 9.00 | –
14 | CN1CCC[C@H](Nc2nnc(-c3ccc(Cl)cc3O)c3c2N(C)CCC3)C1 [Compound I-155] | 8.00 to 9.00 | –
15 | CN1C[C@H](F)C[C@@H](Nc2nnc(-c3ccc(C(F)(F)F)cc3C(F)(F)F)c3cccn23)C1 [Compound I-468] | 8.00 to 9.00 | –
16 | CCN1CCC[C@@H](Nc2nnc(-c3ccc(C(F)(F)F)cc3O)c3cncn23)C1 [Compound I-360] | > 9.00 | –
17 | Oc1cc(C(F)(F)F)ccc1-c1nnc(N[C@H]2CNC[C@H](F)C2)c2cnccc12 [Compound I-306] | > 9.00 | –
18 | CN1CCC[C@@H](Nc2nnc(-c3ccc(C(F)(F)F)cc3O)c3cc(C4CC4)nn23)C1 [Compound I-345] | 8.00 to 9.00 | –
19 | FC(F)(F)c1ccc(-c2nnc(N[C@@H]3CCCN(C4CCOC4)C3)n3cccc23)c(C(F)(F)F)c1 (some centres unmarked) [Compound I-517] | 8.00 to 9.00 | –
20 | COc1ccc(-c2nnc(N[C@H]3CCCN(C)C3)c3cnccc23)c(C(C)C)c1 [Compound I-296] | 8.00 to 9.00 | –
21 | CC(C)Oc1cc(C(F)(F)F)ccc1-c1nnc(N[C@@H]2CCCN(C)C2)c2cnccc12 [Compound I-291] | 8.00 to 9.00 | –
22 | C[C@]1(O)C[C@@H](Nc2nnc(-c3ccc(C(F)(F)F)cc3OC(F)F)c3c(F)ccn23)C1 [Compound I-525] | 7.00 to 8.00 | –

Row | SMILES | pIC50 [1] | pIC50 (THP-1 cells)
23 | CN1CCCC[C@@H](Nc2nnc(-c3ccc(C(F)(F)F)cc3O)c3ccncc23)C1 [Compound I-187] | > 9.00 | –
24 | CCN1CCC[C@@H](Nc2nnc(-c3ccc(C(F)(F)F)cc3O)c3c2CCCC3)C1 [Compound I-19] | > 9.00 | –
25 | OCCN1CCC[C@@H](Nc2nnc(-c3ccc(Br)cc3O)c3cccn23)C1 [Compound I-529] | 8.00 to 9.00 | –
26 | C[C@]1(O)C[C@@H](Nc2nnc(-c3ccc(Cl)cc3O)c3cncn23)C1 [Compound I-549] | 8.00 to 9.00 | –
27 | [2H]C([2H])([2H])Oc1cc(O)c(-c2nnc(N[C@@H]3CCCN(C)C3)n3cccc23)c(F)c1 [Compound I-513] | > 9.00 | –
28 | CN1CCC[C@@H](Nc2nnc(-c3ccc(OC(F)F)cc3OC(F)F)c3cccn23)C1 [Compound I-612] | 8.00 to 9.00 | –
29 | CN1CCOCC(Nc2nnc(-c3ccc(C(F)(F)F)cc3O)c3ccncc23)C1 (centres unmarked) [Compound I-262] | 8.00 to 9.00 | –
30 | [2H]C([2H])([2H])Oc1cc(O)c(-c2nnc(N[C@@H]3CCCN(CC)C3)n3cccc23)c(F)c1 [Compound I-514, (R)-2-(4-((1-ethylpiperidin-3-yl)amino)pyrrolo[1,2-d][1,2,4]triazin-1-yl)-3-fluoro-5-(methoxy-d3)phenol] | > 9.00 | –
31 | Cc1cc(C)c(-c2nnc(N[C@@H]3CCCN(C)C3)c3cnccc23)c(C)c1 [Compound I-205] | 8.00 to 9.00 | –
32 | COc1ccc(-c2nnc(N[C@@H]3CCCN(C)C3)n3nccc23)c(O)c1 [Compound I-634, (R)-5-Methoxy-2-(7-((1-methylpiperidin-3-yl)amino)pyrazolo[1,5-d][1,2,4]triazin-4-yl)phenol] | 7.00 to 8.00 | –
33 | COc1cc(O)c(-c2nnc(N[C@H]3C[C@@](C)(O)C3)n3cccc23)c(F)c1 [Compound I-562] | 8.00 to 9.00 | –
34 | FC(F)(F)c1ccc(-c2nnc(N[C@@H]3CCCN(C4CCOCC4)C3)n3cccc23)c(C(F)(F)F)c1 [Compound I-516] | 8.00 to 9.00 | –
35 | CN1CCC[C@H](Oc2nnc(-c3ccc(C(F)(F)F)cc3O)c3ccccc23)C1 [Compound I-22] | 6.52 to 7.00 | –
36 | Oc1cc(C(F)(F)F)ccc1-c1nnc(N[C@@H]2CCCNC2)c2c1CCCC2 [Compound I-11, (R)-2-(4-(Piperidin-3-ylamino)-5,6,7,8-tetrahydrophthalazin-1-yl)-5-(trifluoromethyl)phenol] | 7.00 to 8.00 | –
37 | CN1C[C@H](F)C[C@@H](Nc2nnc(-c3ccc(C(F)(F)F)cc3O)c3ccccc23)C1 [Compound I-151] | > 9.00 | –
38 | CN1CCC[C@@H](Nc2nnc(-c3ncc(Cl)cc3O)c3ccccc23)C1 [Compound I-81, (R)-5-Chloro-2-(4-((1-methylpiperidin-3-yl)amino)phthalazin-1-yl)pyridin-3-ol] | 7.00 to 8.00 | –
39 | Cc1cc(O)c(-c2nnc(N[C@@H]3CCCN(C)C3)c3cnccc23)c(F)c1 [Compound I-179] | > 9.00 | –
40 | CCN1C[C@H](O)C[C@@H](Nc2nnc(-c3ccc(OC(F)(F)F)cc3O)c3c(F)ccn23)C1 [Compound I-605] | 6.52 to 7.00 | –
41 | Oc1cc(Br)ccc1-c1nnc(N[C@@H]2CCCOC2)n2nccc12 [Compound I-547] | 7.00 to 8.00 | –
42 | CN1CCC[C@@H](Nc2nnc(-c3ncc(C4CC4)cc3O)c3ccccc23)C1 [Compound I-91, (R)-5-Cyclopropyl-2-(4-((1-methylpiperidin-3-yl)amino)phthalazin-1-yl)pyridin-3-ol] | > 9.00 | –
43 | Oc1cc(Cl)ccc1-c1nnc(N[C@H]2CCOC2)n2cncc12 [Compound I-580] | 8.00 to 9.00 | –
44 | CN1CCC[C@@H](Nc2nnc(-c3c(F)ccc(Cl)c3O)c3ccncc23)C1 [Compound I-211] | – | 7.00 to 8.00

Row | SMILES | pIC50 [1] | pIC50 (THP-1 cells)
45 | CN1CCC[C@@H](Nc2nnc(-c3ccc(C(F)(F)F)cc3O)c3c(F)ccn23)C1 [Compound I-393] | > 9.00 | –
46 | CN1CCC[C@@H](Nc2nnc(-c3ccc(C4CC4)cc3O)c3c(F)ccn23)C1 [Compound I-599] | 8.00 to 9.00 | –
47 | CC(C)N1CCC[C@@H](Nc2nnc(-c3ccc(C(F)(F)F)cc3OC(F)F)c3cccn23)C1 [Compound I-493] | 8.00 to 9.00 | –
48 | OCCN1CCC[C@@H](Nc2nnc(-c3c(O)cc(C4CC4)cc3F)c3cccn23)C1 [Compound I-379] | 8.00 to 9.00 | –
49 | Cc1cc(O)c(-c2nnc(N[C@@H]3CCCN(C)C3)c3ncccc23)c(F)c1 [Compound I-304] | > 9.00 | –
50 | CCc1ccc(-c2nnc(N[C@@H]3CCCN(C)C3)c3cnccc23)c(O)c1 [Compound I-307] | > 9.00 | –
51 | CN1CCCCC(Nc2nnc(-c3ccc(C(F)(F)F)cc3O)c3ccccc23)C1 (centres unmarked) [Compound I-95] | 8.00 to 9.00 | –
52 | CN1CCN(CCNc2nnc(-c3ccc(C(F)(F)F)cc3O)c3ccccc23)CC1 [Compound I-161] | 7.00 to 8.00 | –
53 | CN1CCC[C@@H](Nc2nnc(-c3ccc(OC(F)(F)F)cc3OC(F)F)c3cccn23)C1 [Compound I-519] | 8.00 to 9.00 | –
54 | OCCN1CCC[C@@H](Nc2nnc(-c3c(O)cc(Cl)cc3F)c3cccn23)C1 [Compound I-482] | 8.00 to 9.00 | –
55 | CN1C[C@H](F)C[C@@H](Nc2nnc(-c3ccc(Br)cc3O)c3ccnn23)C1 [Compound I-546, 5-Bromo-2-(7-(((3R,5R)-5-fluoro-1-methylpiperidin-3-yl)amino)pyrazolo[1,5-d][1,2,4]triazin-4-yl)phenol] | 8.00 to 9.00 | –
56 | CN1CCC[C@@H](Nc2nnc(-c3ncc(Cl)cc3O)c3ccncc23)C1 [Compound I-172] | 8.00 to 9.00 | –
57 | CN1CC[C@H](F)[C@@H](Nc2nnc(-c3ccc(C(F)(F)F)cc3O)c3cccn23)C1 [Compound I-478] | 7.00 to 8.00 | –
58 | COc1ccc(-c2nnc(N[C@@H]3CCCN(C)C3)n3cccc23)c(O)c1 [Compound I-357] | 8.00 to 9.00 | –
59 | CN1CCC[C@@H](Nc2nnc(-c3c(O)cccc3F)c3ccccc23)C1 [Compound I-14] | 8.00 to 9.00 | –
60 | C[C@]1(O)C[C@@H](Nc2nnc(-c3ccc(OC(F)F)cc3OC(F)F)c3cccn23)C1 [Compound I-573] | 7.00 to 8.00 | –
61 | Cc1ccc(O)c(-c2nnc(N[C@@H]3CCCN(C)C3)c3ccccc23)c1 [Compound I-17] | 6.52 to 7.00 | –
62 | Cc1ccc(-c2nnc(N[C@@H]3CCCN(C)C3)c3ncccc23)c(O)c1 [Compound I-86] | > 9.00 | –
63 | Oc1cc(C(F)(F)F)ccc1-c1nnc(N[C@H]2C[C@](O)(C(F)(F)F)C2)n2cccc12 [Compound I-405] | 6.52 to 7.00 | –
64 | COc1cc(C(F)(F)F)ccc1-c1nnc(N[C@@H]2CCCN(C)C2)n2cncc12 [Compound I-349, 1-[2-Methoxy-4-(trifluoromethyl)phenyl]-N-[(3R)-1-methyl-3-piperidyl]imidazo[1,5-d][1,2,4]triazin-4-amine] | 8.00 to 9.00 | –
65 | CN1CCC[C@@H](Nc2nnc(-c3ccc(C(F)(F)F)cc3O)c3cnccc23)C1 [Compound I-54] | > 9.00 | –
